Experimental data published in patent EP0338372A2, “Solubilized pro-drugs” (AMERICAN CYANAMID COMPANY, priority 1988, dated 1989).

Test system: lymphocytic leukemia P388
Test: Lymphocytic leukemia P388 test
Format: in vivo, BDF1 mice
[1] = Dose 50 mg/kg intraperitoneally on days 1, 5 and 9
[2] = Dose 200 mg/kg intraperitoneally on days 1, 5 and 9
[3] = Dose 3.12 mg/kg intraperitoneally on days 1, 5 and 9
[4] = Dose 12.5 mg/kg intraperitoneally on days 1, 5 and 9
[5] = Dose 100 mg/kg intraperitoneally on days 1, 5 and 9
[6] = Dose 12.25 mg/kg intraperitoneally on days 1, 5 and 9
[7] = Dose 25 mg/kg intraperitoneally on days 1, 5 and 9
[8] = Dose 6.25 mg/kg intraperitoneally on days 1, 5 and 9

O=CN1CCN=C1NN=Cc1c2ccccc2c(C=NNC2=NCCN2C=O)c2ccccc12 [2,2-[9,10-Anthracenediylbis(methylidyne-1-hydrazinyl-2-ylidene)]bis[4,5-dihydro]-1H-imidazole-1-carboxaldehyde]
Median Survival [1]: 12 days | T/C x 100 % [1]: 120% | Median Survival [2]: 12 days | T/C x 100 % [2]: 120%

O=C(O)CCCC(=O)N1CCN=C1NN=Cc1c2ccccc2c(C=NNC2=NCCN2C(=O)CCCC(=O)O)c2ccccc12 [2,2-[9,10-Anthracenedlylbis(methylidyne-1-hydrazinyl-2-ylidene)]bis[4,5-dihydro-delta-oxo-1H-imidazole-1-pentanoic Acid]]
Median Survival [3]: 15.5 days | T/C x 100 % [3]: 141% | Median Survival [4]: 18 days | T/C x 100 % [4]: 164% | Median Survival [1]: 19 days | T/C x 100 % [1]: 173% | Median Survival [2]: 23 days | T/C x 100 % [2]: 209%

O=C(c1ccc2ccccc2c1)N1CCN=C1N(N=Cc1c2ccccc2c(C=NN(C(=O)c2ccc3ccccc3c2)C2=NCCN2C(=O)c2ccc3ccccc3c2)c2ccccc12)C(=O)c1ccc2ccccc2c1 [2,2'-(9,10-Anthracenediyldimethylidyne)bis[1-[4,5-dihydro-1-(2-naphthalenylcarbonyl)-1H-imidazol-2-yl]-hydrazide] of 2-naphthoic acid]
Median Survival [5]: 12 days | T/C x 100 % [5]: 104%

CC(C)(C)OC(=O)N1CCN=C1NN=Cc1c2ccccc2c(C=NNC2=NCCN2C(=O)OC(C)(C)C)c2ccccc12 [2,2-(9,10-Anthracenediylbis(methylidyne-1-hydrazinyl-2-ylidene)]bis[4,5-dihydro]-1H-imidazole-1-carboxylic Acid], Bis(1,1-dimethylethyl) Ester]
Median Survival [6]: 17.5 days | T/C x 100 % [6]: 152% | Median Survival [7]: 22 days | T/C x 100 % [7]: 191% | Median Survival [1]: 31.5 days | T/C x 100 % [1]: 274%

CCCC(=O)N1CCN=C1N(N=Cc1c2ccccc2c(C=NN(C(=O)CCC)C2=NCCN2C(=O)CCC)c2ccccc12)C(=O)CCC [2,2'-(9,10-Anthracenediyldimethylidyne)bis[1-[4,5-dihydro-1-(1-oxobutyl)-1H-imidazol-2-yl]hydra-zide] of butanoic acid]
Median Survival [2]: 11.5 days | T/C x 100 % [2]: 105%

CCCCCCc1ccc(C(=O)N2CCN=C2N(N=Cc2c3ccccc3c(C=NN(C(=O)c3ccc(CCCCCC)cc3)C3=NCCN3C(=O)c3ccc(CCCCCC)cc3)c3ccccc23)C(=O)c2ccc(CCCCCC)cc2)cc1 [2,2'-(9,10-Anthracenediyldimethylidyne)bis[1-[1-(4-hexylbenzoyl)-4,5-dihydro-1H-imidazol-2-yl]hydra-zide] of 4-hexylbenzoic acid]
Median Survival [2]: 14 days | T/C x 100 % [2]: 127%

O=CN1CCN=C1N(C=O)N=Cc1c2ccccc2c(C=NN(C=O)C2=NCCN2C=O)c2ccccc12 [2,2'-[9,10-Anthracenediylbis[methylidyne(1-formyl-1-hydrazinyl-2-ylidene)]]bis[4,5-dihydro-1H-imidazole-1-carboxaldehyde]]
Median Survival [4]: 10.5 days | T/C x 100 % [4]: 105% | Median Survival [1]: 11 days | T/C x 100 % [1]: 110% | Median Survival [2]: 11.5 days | T/C x 100 % [2]: 115%

[9,10-Anthracenedlylbis(methylidyne-1-hydrazinyl-2-ylidene (4,5-dihydro-1H-imidazol-2,1-diyl)]]-phosphonic Acid Hydroiodide
Median Survival (mouse, in vivo, ip, 0.4 mg/kg): 21 days | T/C x 100 % (mouse, in vivo, ip, 0.4 mg/kg): 191% | Median Survival (mouse, in vivo, ip, 0.8 mg/kg): 19 days | T/C x 100 % (mouse, in vivo, ip, 0.8 mg/kg): 173% | Median Survival (mouse, in vivo, ip, 1.6 mg/kg): 24.5 days | T/C x 100 % (mouse, in vivo, ip, 1.6 mg/kg): 223% | Median Survival (mouse, in vivo, ip, 3.2 mg/kg): 24 days | T/C x 100 % (mouse, in vivo, ip, 3.2 mg/kg): 218% | Median Survival (mouse, in vivo, ip, 6.3 mg/kg): 22 days | T/C x 100 % (mouse, in vivo, ip, 6.3 mg/kg): 200% | Median Survival (mouse, in vivo, ip, 12.5 mg/kg): 53.5 days | T/C x 100 % (mouse, in vivo, ip, 12.5 mg/kg): 486% | Median Survival (mouse, in vivo, ip, 25 mg/kg): >60 days | T/C x 100 % (mouse, in vivo, ip, 25 mg/kg): >545%

O=C(O)C1CCCCC1C(=O)N1CCN=C1NN=Cc1c2ccccc2c(C=NNC2=NCCN2C(=O)C2CCCCC2C(=O)O)c2ccccc12 (stereo not drawn) [2,2-[9,10-Anthracenediylbis[methylidyne-1-hydrazinyl-2-ylidene(4,5-dihydro-1H-imidazole-2,1-diyl)-carbonyl]]biscyclohexanecarboxylic Acid]
Median Survival [8]: 13.5 days | T/C x 100 % [8]: 123% | Median Survival [4]: 16 days | T/C x 100 % [4]: 145% | Median Survival [7]: 18 days | T/C x 100 % [7]: 164%

O=C(c1ccccc1F)N1CCN=C1N(N=Cc1c2ccccc2c(C=NN(C(=O)c2ccccc2F)C2=NCCN2C(=O)c2ccccc2F)c2ccccc12)C(=O)c1ccccc1F [2,2'-(9,10-Anthracenediyldimethylidyne)bis[1-[1-(2-fluorobenzoyl)-4,5-dihydro-1H-imidazol-2-yl] hydrazide] of 2-fluorobenzoic acid]
Median Survival [7]: 12 days | T/C x 100 % [7]: 109% | Median Survival [1]: 13 days | T/C x 100 % [1]: 118% | Median Survival [5]: 13 days | T/C x 100 % [5]: 118% | Median Survival [2]: 12 days | T/C x 100 % [2]: 109%

Cc1ccc(S(=O)(=O)N2CCN=C2NN=Cc2c3ccccc3c(C=NNC3=NCCN3S(=O)(=O)c3ccc(C)cc3)c3ccccc23)cc1 [2,2-[9,10-Anthracenediylbis(methylidyne-1-hydrazinyl-2-ylidene)]bis[4,5-dihydro-1-[(4-methylphenyl)sulfonyl]-1H-imidazole]]
Median Survival [1]: 14 days | T/C x 100 % [1]: 127% | Median Survival [2]: 14 days | T/C x 100 % [2]: 127%

O=C(c1ccco1)N1CCN=C1N(N=Cc1c2ccccc2c(C=NN(C(=O)c2ccco2)C2=NCCN2C(=O)c2ccco2)c2ccccc12)C(=O)c1ccco1 [2,2'-(9,10-Anthracenediyldimethylidyne)bis[1-[1-(2-furanylcarbonyl)-4,5-dihydro-1H-imidazol-2-yl]hydrazide] of 2-furancarboxylic acid]
Median Survival [2]: 12 days | T/C x 100 % [2]: 120%

CC(=O)N1CCN=C1NN=Cc1c2ccccc2c(C=NNC2=NCCN2C(C)=O)c2ccccc12 [2,2'-[9,10-Anthracenediylbis(methylidyne-1-hydrazinyl-2-ylidene)]bis[1-acetyl-4,5-dihydro-1H-imidazole]
Median Survival [8]: 10.5 days | T/C x 100 % [8]: 105% | Median Survival [4]: 10.5 days | T/C x 100 % [4]: 105% | Median Survival [7]: 10.5 days | T/C x 100 % [7]: 105% | Median Survival [1]: 11 days | T/C x 100 % [1]: 110%

CC(C)(C)CC(=O)N1CCN=C1N(N=Cc1c2ccccc2c(C=NN(C(=O)CC(C)(C)C)C2=NCCN2C(=O)CC(C)(C)C)c2ccccc12)C(=O)CC(C)(C)C [2,2'-(9,10-Anthracenediyldimethylidyne)bis[1-[1-(3,3-dimethyl-1-oxobutyl)-4,5-dihydro-1H-imidazol-2-yl]-hydrazide] of 3,3-dimethylbutanoic acid]
Median Survival [5]: 12 days | T/C x 100 % [5]: 109% | Median Survival [2]: 13 days | T/C x 100 % [2]: 118%

COCC(=O)N1CCN=C1N(N=Cc1c2ccccc2c(C=NN(C(=O)COC)C2=NCCN2C(=O)COC)c2ccccc12)C(=O)COC [2,2-(9,10-Anthracenediyldimethylidyne)bis[1-[4,5-dihydro-1-(methoxyacetyl)-1H-imidazo)-2-yl]hydrazide] of Methoxyacetic Acid]
Median Survival [3]: 14.5 days | T/C x 100 % [3]: 132% | Median Survival [4]: 16.5 days | T/C x 100 % [4]: 150% | Median Survival [1]: 16.5 days | T/C x 100 % [1]: 150% | Median Survival [2]: 16.5 days | T/C x 100 % [2]: 150%

CC(=O)N1CCN=C1N(N=Cc1c2ccccc2c(C=NN(C(C)=O)C2=NCCN2C(C)=O)c2ccccc12)C(C)=O [2,2'-(9,10-Anthracenediyldimethylidyne)bis[1-(1-acetyl-4,5-dihydro-1H-imidazol-2-yl)hydrazide] of acetic acid]
Median Survival [4]: 10.5 days | T/C x 100 % [4]: 105% | Median Survival [1]: 10.5 days | T/C x 100 % [1]: 105% | Median Survival [5]: 11 days | T/C x 100 % [5]: 110%

O=C(c1c(F)c(F)c(F)c(F)c1F)N1CCN=C1N(N=Cc1c2ccccc2c(C=NN(C(=O)c2c(F)c(F)c(F)c(F)c2F)C2=NCCN2C(=O)c2c(F)c(F)c(F)c(F)c2F)c2ccccc12)C(=O)c1c(F)c(F)c(F)c(F)c1F [2,2'-(9,10-Anthracenediyldimethylidyne)bis[1-[4,5-dihydro-1-(pentafluoro-1H-imidazol-2-yl)hydra-zide] of pentafluorobenzoic acid]
Median Survival [2]: 12 days | T/C x 100 % [2]: 109%

N#Cc1ccc(C(=O)N2CCN=C2N(N=Cc2c3ccccc3c(C=NN(C(=O)c3ccc(C#N)cc3)C3=NCCN3C(=O)c3ccc(C#N)cc3)c3ccccc23)C(=O)c2ccc(C#N)cc2)cc1 [2,2'-(9,10-Anthracenediyldimethylidyne)bis[1-[1-(4-cyanobenzoyl)-4,5-dihydro-1H-imidazol-2-yl] hydrazide] of 4-cyanobenzoic acid]
Median Survival [7]: 12 days | T/C x 100 % [7]: 109% | Median Survival [1]: 12.5 days | T/C x 100 % [1]: 114% | Median Survival [5]: 14.5 days | T/C x 100 % [5]: 132% | Median Survival [2]: 14.5 days | T/C x 100 % [2]: 132%

COc1ccc(C(=O)N2CCN=C2N(N=Cc2c3ccccc3c(C=NN(C(=O)c3ccc(OC)cc3)C3=NCCN3C(=O)c3ccc(OC)cc3)c3ccccc23)C(=O)c2ccc(OC)cc2)cc1 [2,2'-(9,10-Anthracenediyldimethylidyne)bis[1-[4,5-dihydro-1-(4-methoxybenzoyl)-1H-imidazol-2-yl] hydrazide] of 4-methoxybenzoic acid]
Median Survival [2]: 16 days | T/C x 100 % [2]: 139%
